Measurements published in publication PMC8071435, “Amorphous Solid Dispersion Tablets Overcome Acalabrutinib pH Effect in Dogs” (Pharmaceutics, 2021).
Where two headings read alike, the source gives them in different places. Marks after values point to notes of the source that are not given here.

How the values were obtained:
[1] = parameters: method as in PMID 31306750; conditions: cited from earlier work
[2] = parameters: method as in PMID 31306750; conditions: cited from earlier work; remark: listed apart in the source
CYP3A4 = test system: CYP3A4; parameters: method as in PMID 31306750; conditions: humans; cited from earlier work
[3] = Chemical stability: total impurities (total related substances) by RP-HPLC after storage; format: physicochemical; conditions: 40 °C/75% RH/open, perforated seal
Protocol: The ASD was stored at 40 °C/75% relative humidity (RH) to assess physical and chemical stability under accelerated storage conditions. Initial ASD samples and aged ASDs were analyzed for crystallinity using PXRD, thermal properties using mDSC, changes in morphology or presence of surface crystals using SEM, and chemical degradation by reverse-phase high-performance liquid chromatography (RP-HPLC). The ASD and ASD tablets were stored at ambient and refrigerated conditions to assess the chemical stability at nonaccelerated conditions. Initial and aged ASD samples were analyzed for total related substances using RP-HPLC. See Appendix A.3 for method details.
ASD and ASD tablet samples were analyzed for total related substances using RP-HPLC using a Waters XBridge C8 (150 × 3 mm, 3.5 µm pores) column (Waters Corporation, Milford, MO, USA) at a temperature of 40 °C. Mobile phase was pumped into the column at a flow rate of 0.7 mL/min using a gradient method. 10 mM ammonium acetate was used as mobile phase A and methanol was used as mobile phase B supplied according to the following sequence: 0 min: 20% B, 30 min: 70% B, 40 min: 70% B, 41 min: 20% B, […]. Samples were diluted with 8/2 (v/v) methanol/water and injection volume was 5 µL. The sample tray was held at uncontrolled room temperature. Analysis wavelength was 230 nm and 4 nm bandwidth.
The ASD was stored at 40 °C/75% relative humidity (RH) to assess physical and chemical stability when stored under accelerated conditions. Approximately 100 mg of ASD was placed in a single 4 mL glass vial, with enough glass vials prepared for each storage condition, timepoint and replicate. […] Initial ASD samples and aged ASDs were analyzed for crystallinity using SEM and PXRD, thermal properties using mDSC (in triplicate) and total related substances using RP-HPLC (duplicate analysis).
Additional ASD samples were stored at ambient and refrigerated conditions to assess the chemical stability upon storage at nonaccelerated conditions. […] Initial and aged ASD samples were analyzed for total related substances using RP-HPLC (duplicate analysis). […]

[4] = parameters: method as in PMID 31306750; conditions: cited from earlier work; remark: listed apart in the source
[5] = parameters: method as in PMID 31306750; conditions: humans; cited from earlier work

Total impurities after 4 wk ([3]; 4 wk): 0.70 ± 0.04 area% | Total impurities after 12 wk ([3]; 12 wk): 0.94 ± 0.05 area% | Total impurities, initial ([3]; initial (different ASD batch)): 0.59 ± 0.00 area%
SMILES: CC#CC(=O)N1CCC[C@H]1c1nc(-c2ccc(C(=O)Nc3ccccn3)cc2)c2c(N)nccn12 [acalabrutinib]
log P [1]: 2.0 ^a | pKas in physiological range ([2]; higher basic pKa): 5.8 | pKas in physiological range ([2]; lower basic pKa): 3.5 | Fraction metabolized by CYP3A4 in the gut (CYP3A4): approximately 50% | Crystalline intrinsic solubility [4]: 48 ^a µg/mL | Fraction metabolized by first-pass liver extraction [5]: 50%
